Results from US20030045557A1, “Thiadiazoles and oxadiazoles and their use as phosphodiesterase-7 inhibitors” (priority 2000, published 2003).
Where a name gives a salt, the structure may show the parent alone.

Each compound was assayed against T1, PDE7A1 (Homo sapiens, UniProt Q13946) (assay: In vitro inhibition of phosphodiesterase 7 (enzymatic activity, cAMP substrate 50 nM)). Details: PDE7A1 expressed in Sf 21 insect cells; cAMP 50 nM; reaction 10 minutes; read-out: IC50 (PDE7).
T1 construct: made in house; host or cells: Sf21 insect cells (baculovirus expression system)
T1 sequence (Q13946 whole entry, species assumed): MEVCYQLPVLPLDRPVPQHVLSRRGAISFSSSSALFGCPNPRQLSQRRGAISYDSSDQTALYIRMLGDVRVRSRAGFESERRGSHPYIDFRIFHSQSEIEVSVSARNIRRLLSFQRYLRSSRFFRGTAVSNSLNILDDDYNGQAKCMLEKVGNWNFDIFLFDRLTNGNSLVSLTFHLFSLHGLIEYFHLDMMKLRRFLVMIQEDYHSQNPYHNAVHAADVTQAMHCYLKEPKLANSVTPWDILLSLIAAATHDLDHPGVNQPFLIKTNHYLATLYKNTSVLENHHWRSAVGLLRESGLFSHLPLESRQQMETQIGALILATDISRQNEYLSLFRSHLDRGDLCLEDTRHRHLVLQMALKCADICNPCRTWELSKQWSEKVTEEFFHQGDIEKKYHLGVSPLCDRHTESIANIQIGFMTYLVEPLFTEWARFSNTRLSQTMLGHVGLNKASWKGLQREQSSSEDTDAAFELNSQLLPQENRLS
Format: biochemical
Method: The capacity of the compounds of the invention to inhibit cyclic nucleotide phosphodiesterases was evaluated by measuring their IC50 (concentration necessary to inhibit the enzymatic activity by 50%).
PDE3A3, PDE4D3, and PDE7A1 were cloned and expressed in insect cells Sf 21 using the baculovirus expression system. The source of PDE103 and of PDE503 were human cell lines (respectively TPH1 human monocytes and MCF7 human breast adenocarcinoma). The various types of phosphodiesterases were obtained partially purified on an anion exchange column (Mono Q) according to a method adapted from Lavan B. E., Lakey T., Houslay M.D., Biochemical Pharmacology, 1989;38(22):4123-4136.
Measurement of the enzymatic activity for the various types of PDE was then made according to a method adapted from Thompson W. J. et al., Advances in Cyclic Nucleotide Research, ed. G. Brooker et al. New York: Raven Press, 1979;10:69-92.
The substrate used was cGMP for PDE1 and PDE5 and cAMP for PDE3, PDE4, and PDE7. The substrate concentration was 0.2 μM for PDE1, PDE3, and PDE5, 0.25 μM for PDE4, and 50 nM for PDE7.
The enzymatic reaction was stopped after 1 hour for PDE1, PDE3, and PDE5 and 10 minutes for PDE4 and PDE7.

| IC50 [nM] | Compound |
| --- | --- |
| 92 | COc1cc(-c2nn(C)/c(=N/C3CCCCC3)s2)cc(O)c1OC [I18,4, 5-(5-Cyclohexylimino-4-methyl-4,5-dihydro[1,3,4]thiadiazol-2-yl)-2,3-dimethoxy-phenol;compound with trifluoro-methanesulfonic Acid] |
| 1200 | Cn1nc(-c2ccc(Cl)cc2)s/c1=N\C1CCCCC1 [I18,5, [5-(4-Chloro-phenyl)-3-methyl-3H-[1,3,4]thiadiazol-2-ylidene]-cyclohexyl-amine] |
| 870 | Cn1nc(-c2cccc(C(=O)O)c2)s/c1=N\C1CCCCC1 [I21,1, 3-(5-Cyclohexylimino-4-methyl-4,5-dihydro-[1,3,4]thiadiazol-2-yl)-benzoic acid] |
| 550 | Cn1nc(-c2ccc(C(=O)O)cc2)s/c1=N\C1CCCCC1 [I37,1, 4-(5-Cyclohexylimino-4-methyl-4,5-dihydro-[1,3,4]thiadiazol-2-yl)-benzoic acid] |
| 1200 | Cn1nc(-c2ccc(C(=O)NO)cc2)s/c1=N\C1CCCCC1 [I37,2, 4-(5-Cyclohexylimino-4-methyl-4,5-dihydro-[1,3,4]thiadiazol-2-yl)-N-hydroxy-benzamide] |
| 62 | Cn1nc(-c2ccc(C(N)=O)cc2)s/c1=N\C1CCCCC1 [I37,3, 4-(5-Cyclohexylimino-4-methyl-4,5-dihydro-[1,3,4]thiadiazol-2-yl)-benzamide] |
| 150 | Cn1nc(-c2ccc(C(=O)Nc3nn[nH]n3)cc2)s/c1=N\C1CCCCC1 [I37,4, 4-(5-Cyclohexylimino-4-methyl-4,5-dihydro-[1,3,4]thiadiazol-2-yl)-N-(2H-tetrazol-5-yl)-benzamide hydrochloride salt] |
| 93 | Cn1nc(-c2ccc(C(=O)Nc3cccc4cccnc34)cc2)s/c1=N\C1CCCCC1 [I37,5, 4-(5-Cyclohexylimino-4-methyl-4,5-dihydro[1,3,4]thiadiazol-2-yl)-N-quinolin-8-yl-benzamide] |
| 97 | COc1ccc(NC(=O)c2ccc(-c3nn(C)/c(=N/C4CCCCC4)s3)cc2)c(OC)n1 [I37,6, 4-(5-Cyclohexylimino-4-methyl-4,5-dihydro[1,3,4]thiadiazol-2-yl)-N-(2,6-dimethoxy-pyridin-3-yl)-benzamide] |
| 86 | CC(C)NC(=O)c1ccc(-c2nn(C)/c(=N/C3CCCCC3)s2)cc1 [I37,7, 4-(5-Cyclohexylimino-4-methyl-4,5-dihydro[1,3,4]thiadiazol-2-yl)-N-isopropyl-benzamide] |
| 64 | CCNC(=O)c1ccc(-c2nn(C)/c(=N/C3CCCCC3)s2)cc1 [I37,8, 4-(5-Cyclohexylimino-4-methyl-4,5-dihydro[1,3,4]thiadiazol-2-yl)-N-ethyl-benzamide] |
| 75 | CN(C)CCNC(=O)c1ccc(-c2nn(C)/c(=N/C3CCCCC3)s2)cc1 [I37,9, 4-(5-Cyclohexylimino-4-methyl-4,5-dihydro[1,3,4]thiadiazol-2-yl)-N-(2-dimethylamino-ethyl)-benzamide] |
| 44 | Cn1nc(-c2ccc(C(=O)NCc3ccncc3)cc2)s/c1=N\C1CCCCC1 [I37,10, 4-(5-Cyclohexylimino-4-methyl-4,5-dihydro[1,3,4]thiadiazol-2-yl)-N-pyridin-4-ylmethyl-benzamide] |
| 72 | CN1CCC(N(C)C(=O)c2ccc(-c3nn(C)/c(=N/C4CCCCC4)s3)cc2)CC1 [I37,11, 4-(5-Cyclohexylimino-4-methyl-4,5-dihydro-[1,3,4]thiadiazol-2-yl)-N-methyl-N-(1-methyl-piperidin-4-yl)-benzamide] |
